Test results reported in patent publication US5698529A, “Chemotherapeutic compositions” (Supratek Pharma, Inc., priority 1996, dated 1997).

Experiments:
[1] = system: human ovarian cancer cells (CRL157); experiment: Cytotoxicity to human ovarian cancer cells (CRL157), Example 3; format: cell-based
Method: (§1) B. Human ovarian carcinoma cells (CRL157) are precultured in 1% solution of the same block copolymer but without daunorubicin in RPMI 1640 medium supplemented with 10% calf fetal serum. The preparation of part A is added and the mixture is incubated for 60 minutes at 37° C. and the cells then washed three times with RPMI 1640 and cultured in RPMI 1640 supplemented with 10% calf fetal serum for 3 days {Prep. A}. Cytotoxicity is measured, both for this preparation and a parallel preparation of free daunorubicin {Prep. B}, using the method of Alley et al., Cancer Res., 48, 589-601 (1988). The results are as follows:
A. A 1:1.5 mixture of block copolymers of poly(oxyethylene)-poly(oxypropylene) (pluronics P-85 and L-64) having individual ratios (n) of (oxypropylene) to (oxyethylene) blocks of 1.00 and 1.50, respectively, and a combined value (N) of 1.30, is diluted with RPMI 1640 medium to a final concentration of 2.0% at 4° C. The mixture is incubated for 30 minutes at 37° C. and then sterilely filtered through a 0.22 μm filter. An equal volume of a solution of 200 μg daunorubicin in RPMI 1640 medium is added and this mixture is incubated for 30 minutes at 37° C.
B. Cytotoxicity to human ovarian cancer cells (CRL157) is measured, both for this preparation {Prep. A} and a parallel preparation of free daunorubicin {Prep. B} as described in Example 1B.

Dox-MCF-7 = experiment: Cytotoxicity against daunorubicin-resistant, verapamil-sensitive Dox-MCF-7 expressing P-170; format: cell-based, human
Excerpt: (§2) The daunorubicin composition of Example 3 {Prep. […] B}.

[2] = system: human breast cancer (MCF-7); experiment: Cytotoxicity against daunorubicin-sensitive human breast cancer (MCF-7); format: cell-based; conditions: MCF7
Excerpt: as §2

leukocytes = experiment: Leukocyte count (WBS) in mice
Method: Therefore, the leukocyte count during in vivo administration of MTD daunorubicin allows the assessment of the ratio between specific (DNA-intercollation) activity of the drug and non-specific toxicity.
Groups (6 animals/group) of C57B1/6 7-week-old female mice are inoculated i.p. with free of micellar (N=1.3) daunorubicin obtained as described in Example 3 {Prep. B and Prep. A, respectively}. Drug concentrations (MTD) are adjusted so that a maximum volume of 0.5 mL is injected in each mouse. Blood samples are collected and viable leukocytes are counted as described in Michisch et al., Proc. Natl. Acad. Sci. USA 88, 547-551 (1991). The number of WBC after administration of 0.1 mL PBS, 15-16 mln cells/mL, is used as the control. The experiment is repeated twice.
The effects of free and micellar daunorubicin obtained as described in Example 3 {Prep. B and Prep. A, respectively} on leukocyte count are determined three days after administration as described in Example 15.

[3] = system: human T-lymphoma (Jurkat) cells; experiment: Cytotoxicity to human T-lymphoma (Jurkat) cells, Example 1; format: cell-based
Method: (§3) A. A block copolymer of poly(oxyethylene)-poly(oxypropylene) in which N=0.25 (Pluronic F-68) is diluted with RPMI 1640 medium to a final concentration of 2.0% at 4° C. The mixture is incubated for 30 minutes at 37° C. and then sterilely filtered through a 0.22 μm filter. An equal volume of a solution of 200 μg daunorubicin in RPMI 1640 medium is added and this mixture is incubated for 30 minutes at 37° C.
as §1
Following the same procedure, cytotoxicity is determined against human T-lymphoma (Jurkat) cells: […]

H-69 cells = experiment: Cytotoxic activity of plasma of inoculated mice on H-69 cells; format: cell-based, human; conditions: MTD i.v., plasma one hour after administration
Method: Anti-neoplastic activity is determined by evaluation of the cytotoxic activity of plasma of mammals inoculated with the test composition (see de Valeriola et el., Cancer Chemother. Pharmacol. 29, 133-140, 1991).
Groups (6 animals/group) of C57B1/6 7-week-old female mice are inoculated i.v. (via the tail vein) with free or micellar (N=1.3) daunorubicin obtained as described in Example 3 {Prep. B and Prep. A, respectively}. Drug concentrations (MTD) are adjusted so that a maximum volume of 0.1 mL is injected in each mouse. The experiment is repeated twice.
To obtain plasma samples, blood (10 μl) is collected from the tail artery one hour after drug administration, diluted 1:10 with sterile RPMI 1640 medium, and centrifuged at 400 g for 15 minutes. […] The cells are incubated for two hours at 37° C. and 5% CO2, and then washed three times with RPMI 1640. The pretreated cells are incubated in RPMI 1640 supplemented with 10% fetal calf serum at 37° C. and 5% CO2 for three days, after which cytotoxicity is determined as described in Example 1.

[4] = system: human ovarian carcinoma cells (CRL157); experiment: Cytotoxicity to human ovarian carcinoma cells (CRL157), Example 1; format: cell-based; conditions: Ovarian carcinoma cell
Method: as §3
as §1, with “(1988).” for “(1988). The results are as follows:”

COc1cccc2c1C(=O)c1c(O)c3c(c(O)c1C2=O)C[C@@](O)(C(C)=O)C[C@@H]3O[C@H]1C[C@H](N)[C@H](O)[C@H](C)O1 [Prep. B, daunorubicin]
inhibition at 0.0032 µg/mL [1]: 2%
inhibition at 0.016 µg/mL [1]: 10%
inhibition at 0.08 µg/mL [1]: 29%
inhibition at 0.4 µg/mL [1]: 50%
inhibition at 2 µg/mL [1]: 81%
inhibition at 10 µg/mL [1]: 100%
inhibition at 50 µg/mL [1]: 100%
inhibition at 0.016 µg/mL (Dox-MCF-7; Homo sapiens): 2%
inhibition at 0.08 µg/mL (Dox-MCF-7; Homo sapiens): 7%
inhibition at 0.4 µg/mL (Dox-MCF-7; Homo sapiens): 39%
inhibition at 2 µg/mL (Dox-MCF-7; Homo sapiens): 62%
inhibition at 10 µg/mL (Dox-MCF-7; Homo sapiens): 86%
inhibition at 50 µg/mL (Dox-MCF-7; Homo sapiens): 100%
IC50 (in words) (Dox-MCF-7; resistant line Dox-MCF-7, statement for both resistant lines): higher IC50 's (is less toxic)
inhibition at 0.016 µg/mL [2]: 15%
inhibition at 0.08 µg/mL [2]: 43%
inhibition at 0.4 µg/mL [2]: 69%
inhibition at 2 µg/mL [2]: 91%
inhibition at 10 µg/mL [2]: 100%
inhibition at 50 µg/mL [2]: 100%
WBS, % of control (leukocytes; day 0, MTD i.p.): 100 % of control
WBS, % of control (leukocytes; day 3, MTD i.p.): 40 % of control
WBS, % of control (leukocytes; day 7, MTD i.p.): 60 % of control
WBS, % of control (leukocytes; day 10, MTD i.p.): 93.8 % of control
WBS, % of control (leukocytes; day 14, MTD i.p.): 100 % of control
WBS, % of control (leukocytes; dose 25% of MTD, three days after administration): 78 % of control
WBS, % of control (leukocytes; dose 50% of MTD, three days after administration): 61 % of control
WBS, % of control (leukocytes; dose 75% of MTD, three days after administration): 36 % of control
WBS, % of control (leukocytes; dose 100% of MTD, three days after administration): 39 % of control
inhibition at 0.0032 µg/mL [3]: 22%
inhibition at 0.016 µg/mL [3]: 44%
inhibition at 0.08 µg/mL [3]: 51%
inhibition at 0.4 µg/mL [3]: 84%
inhibition at 2 µg/mL [3]: 100%
inhibition at 10 µg/mL [3]: 100%
inhibition at 50 µg/mL [3]: 100%
Inhibition, % (H-69 cells; plasma dilution 1:20): 42%
Inhibition, % (H-69 cells; plasma dilution 1:200): 5%
Inhibition, % (H-69 cells; plasma dilution 1:2000): 0%
Inhibition, % (H-69 cells; plasma dilution 1:20000): 0%
inhibition at 0.016 µg/mL [4]: 1%
inhibition at 0.08 µg/mL [4]: 20%
inhibition at 0.4 µg/mL [4]: 38%
inhibition at 2 µg/mL [4]: 53%
inhibition at 10 µg/mL [4]: 81%
inhibition at 50 µg/mL [4]: 100%
